# Source: US10730857B2, “Benzocyanine compounds” (Pierce Biotechnology, Inc., priority 2011, dated 2020)
# Entries after “also recorded” stand apart in the source; their conditions may differ.
# Columns and labels:
# [1] = Absorbance/emission spectral properties and fluorescence intensity of the dyes; assay type: physicochemical; conditions: second property table of Example 6; NHS ester forms
# Method: Emission/excitation profiles for inventive and commercial compounds was determined by reconstituting the compounds in DMF at 10 mg/ml and then diluting in PBS buffer pH 7.2 to 10 μg/ml.
# lamin A in U20S cells = test: Immunofluorescence detection of lamin A in U20S cells (FIG. 20A-C and repeat); assay type: cell-based; conditions: for S/B 2.5 X: 2.5 X molar excess
# Method: In the indicated experiments, the inventive compounds and commercial dye were evaluated for immunofluorescence in a cell based assay using the following protocol. Frozen U20S cell plates which were stored at −80° C. were thawed for 45 minutes at 50° C. Storage buffer (PBS) was removed and the cells were permeabilized for 15 minutes with 0.1% Triton-X100 in 1×PBS buffer (100 μl/well). The cell plate was blocked for 60 minutes in 2% BSA/PBS-0.1% Triton-X100. Primary antibody, either rat anti-Grp94 (5 μg/ml), mouse anti-lamin A (10 μg/ml), or rabbit anti-lamin B1 (10 μg/ml), diluted in 2% BSA/PBS-0.1% Triton-X100 was added to the plate and incubated for 1 hour at room temperature. Control wells contained only 2% BSA/PBS-0.1% Triton-X100 blocker. After incubation, the antibody solution was removed from the plate and the plate was washed three times with 100 μl/well of PBS-0.5% Tween-20 and one time with 100 μl/well PBS. GARat, GAM, or GAR secondary antibodies labeled with various molar excess of the inventive or commercial compound were diluted to 4 μg/ml in PBS and incubated for 1 hour at room temperature. The plates were washed three times with 100 μl/well of PBST and once with 100 μl/well PBS, and Hoechst (diluted to 0.1 μg/ml in PBS) was added to each well (100 μl/well). The plates were scanned on ArrayScan Plate Reader or ToxInsight Instrument.
# [2] = test system: rabbit IgG immunoglobulin; test: Plate functional assay of dye-GAR conjugates; assay type: binding; conditions: FIG. 14 summary Raw Fluorescence Intensity
# Method: Performance of the dye-GAM conjugates, dye-GAR conjugates, and dye-SA conjugates was evaluated in a functional assay. Wells of a 96 white opaque plate or black clear-bottom plate were coated with target proteins mouse IgG immunoglobulin, rabbit IgG immunoglobulin, or biotinylated bovine serum albumin (BBSA). One hundred μl mouse or rabbit IgG, or BBSA at a concentration of 10 μg/ml was applied to the corresponding wells in columns 1 and 2. The target proteins were serially diluted 1:1 from the wells in columns 2 to 11 using 100 μl PBS. One hundred μl of the samples from the wells in column 11 were discarded. One hundred μl PBS was added to the wells in column 12. The plates were incubated overnight at 4° C. and then blocked 2×200 μl with Thermo Scientific SuperBlock® Blocking Buffer. The coated plates were washed 2×200 μl with PBS-Tween and 1×200 μl with PBS. Based on the calculated concentrations, conjugates were diluted 1:250 in PBS, added to the corresponding plates (100 μl/well) and then incubated for one hour in the dark. The plates were washed with 2×200 μl with PBS-Tween and 1×200 μl with PBS and filled with PBS buffer (100 μl/well) prior to scanning the white opaque plates on Tecan Safire using 679 nmexcitation/702 nmemission or scanning the black clear-bottom plates on LiCor Odyssey at 700 channel, to detect fluorescence intensity.
# [3] = In vivo imaging with dye-labeled anti-CEA antibody; set-up: species or system nu/nu mice; conditions: dye conjugated to mouse anti-CEA antibody; i.v.; predicted results
# Method: The inventive compounds are used for in vivo imaging as described in J. Gastrointest Surg (2008) 12:1938-1950. Briefly, human pancreatic cell lines are maintained in media supplemented with penicillin/streptomycin at 37° C. with 5% CO2. Mouse anti-CEA antibody and Control Mouse IgG (in PBS with 0.20% sodium azide) are conjugated to V08-15173. The dye is reconstituted at 10 mg/ml in DMF and then added to the antibody at a 10 molar excess. The reaction is carried out for one hour at room temperature. The samples are then dialyzed against 3×2 L of PBS. The cell lines are plated in 96-well plates at 5×10^4 cells per well. After 48 hours culture in appropriate media, the cells are incubated with 1 μg of V08-15173 labeled anti-CEA antibody or V08-15173-labeled control mouse IgG for four hours at 37° C. The cells are then washed three times with PBS and then imaged with an inverted Nikon De-485 microscope and Spot camera RD.
# Surgical procedures and intravital imaging are performed with the animals anesthesized by intramuscular injection of 0.02 ml of 50% ketamine, 38% xylazine and 12 acepromazine maleate. Human pancreatic and colorectal cancer cell lines are harvested by trypsinization and washed twice with serum free medium […]. Cells (1×10^6 in 100 μl of serum-free media) are injected subcutaneously within 30 minutes of harvesting over the right flank in female nu/nu mice between 4-6 weeks of age. Subcutaneous tumors are allowed to grow for 7-14 days until they reached diameter of 1-2 mm prior to the delivery of conjugated antibody. For ASPC-1 implants, the cells are harvested by trypsinization and washed 3× in serum-free media. […]. The cells are resuspended in serum-free media at 5×10^6/ml. A volume of 200 μl of the cell suspension is then injected directly into the peritoneal cavity within 30 minutes of harvesting.
# For antibody delivery, one to two weeks after subcutaneous, orthotopic, or intraperitoneal tumor implantation, animals are given intravenous (i.v.) injection of either conjugated anti-CEA or conjugated control IgG antibody diluted in PBS to a final volume of 100 μl. All i.v. injections are done via the tail vein. For the dose-response experiment, the antibody dose is 75 μg. For the in vivo time course, the animals are anesthesized and imaged at 30 min, 1, 2, 6, 24 hours and 8 and 15 days after systemic antibody delivery.
# The inventive compounds are used for in vivo imaging as described in J. Gastrointest Surg (2008) 12:1938-1950. Briefly, human pancreatic cell lines are maintained in media supplemented with penicillin/streptomycin at 37° C. with 5% CO2. Mouse anti-CEA antibody and Control Mouse IgG (in PBS with 0.20% sodium azide) are conjugated to 779 Compound 1. […]
smiles,measurement,setting,value
COCCOCCOCCOCC[N+]1=C(/C=C/C=C/C=C2/N(CCOCCOCCOCCOCCC(=O)ON3C(=O)CCC3=O)c3ccc4c(S(=O)(=O)[O-])cc(S(=O)(=O)O)cc4c3C2(C)CCOCCOCCOCCOC)C(C)(CCOCCOCCOCCOC)c2c1ccc1c(S(=O)(=O)O)cc(S(=O)(=O)O)cc21 (stereo not shown) [Compound V08-15173],Em,[1],706 nm
same,Ex,[1],684 nm
same,S/B 2.5 X,lamin A in U20S cells; GAM conjugate,2.9
same,S/B 5.0 X,"lamin A in U20S cells; GAM conjugate, 5.0 X molar excess",4.9
same,S/B 7.5 X,"lamin A in U20S cells; GAM conjugate, 7.5 X molar excess",6.0
same,S/B 10 X,"lamin A in U20S cells; GAM conjugate, 10 X molar excess",4.9
same,S/B 15 X,"lamin A in U20S cells; GAM conjugate, 15 X molar excess",4.6
same,non-specific binding / specificity (in words),"lamin A in U20S cells; GAM conjugates, FIG. 20A-C",a minimal amount of non-specific binding; also recorded: little non-specific binding
same,"Mean Total Intensity, Negative control, 7.5 X","lamin A in U20S cells; no primary antibody, 7.5 X molar excess",7100
same,S/B 2.5 X,lamin A in U20S cells; repeat experiment,9.8
same,quenching at 1000 ng/well at 25× (in words),[2],no apparent quenching
same,Ex vivo analysis of the vital organs,[3],presence of dye predominantly in the liver with some signal detected in the spleen intestines and lungs
same,post-experiment surgical exposure: accumulation of dye,[3],"accumulation of dye in the liver, bladder, and a region of inflammation in the subcutaneous tissue"
